Assay results: ChEMBL document CHEMBL6109039, “Designed and synthesized novel tripeptides targeting diabetes and its related pathologies” (Eur J Med Chem, 2025)
Residues, ends and D or L forms follow the SMILES beside them.

Tests used:
Mus musculus [1] = assay: Antidiabetic activity in Nicotinamide/Streptozotocin induced male Balb/c mouse model assessed as reduction in HDL-cholesterol level in blood at 63.81 ug/kg, ip treated for 21 days (reference value: 30 +/- 1.80 mg/dL); type: functional; settings: dose 63.81 µg/kg, time 21 day
Albumin [2] = target: T1, Albumin (Homo sapiens, UniProt P02768); assay: Inhibition of D-glucose glycation in human serum albumin model by measuring ketoamine moieties incubated for 14 days by Nitroblue tetrazolium (NBT) reduction assay (reference value: 28.69 nmol/mL); settings: 336 h, time 14 day
T1 sequence (P02768 whole entry): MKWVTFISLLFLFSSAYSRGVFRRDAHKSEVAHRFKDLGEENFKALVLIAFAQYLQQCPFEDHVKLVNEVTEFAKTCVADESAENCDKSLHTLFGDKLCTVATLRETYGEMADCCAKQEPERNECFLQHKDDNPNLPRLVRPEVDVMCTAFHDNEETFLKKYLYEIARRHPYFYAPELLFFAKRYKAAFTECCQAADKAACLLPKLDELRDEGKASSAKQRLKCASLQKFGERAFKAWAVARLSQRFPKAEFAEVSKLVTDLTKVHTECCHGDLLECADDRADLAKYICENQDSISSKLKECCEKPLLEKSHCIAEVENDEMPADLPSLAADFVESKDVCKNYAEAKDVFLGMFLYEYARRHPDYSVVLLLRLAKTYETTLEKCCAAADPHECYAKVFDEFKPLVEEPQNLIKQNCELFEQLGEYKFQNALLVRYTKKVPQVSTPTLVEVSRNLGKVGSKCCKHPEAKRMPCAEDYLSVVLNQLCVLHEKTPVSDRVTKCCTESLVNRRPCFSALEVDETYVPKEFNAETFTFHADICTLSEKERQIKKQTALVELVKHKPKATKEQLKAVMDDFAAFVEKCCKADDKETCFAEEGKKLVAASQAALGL

Mus musculus [3] = assay: Antidiabetic activity in Nicotinamide/Streptozotocin induced male Balb/c mouse model assessed as reduction in alanine aminotransferase level in blood at 63.81 ug/kg, ip treated for 21 days (reference value: 111 +/- 5.05 U/L); type: functional; settings: dose 63.81 µg/kg, time 21 day
Albumin [4] = target: T1, Albumin; assay: Inhibition of D-fructose glycation in human serum albumin model assessed as reduction in fluorescence intensity incubated for 3 days by UV spectroscopic analysis relative to control; settings: 72 h, time 3 day
Albumin [5] = target: T1, Albumin; assay: Inhibition of D-glucose glycation in human serum albumin model by measuring ketoamine moieties incubated for 3 days by Nitroblue tetrazolium (NBT) reduction assay (reference value: 24.27 nmol/mL); settings: 72 h, time 3 day
Albumin [6] = target: T1, Albumin; assay: Inhibition of D-fructose glycation in human serum albumin model by measuring absorbance at 279 nm incubated for 30 days by UV spectroscopic analysis (reference value: 2.323); settings: 720 h, time 30 day
Mus musculus [7] = assay: Antidiabetic activity in Nicotinamide/Streptozotocin induced male Balb/c mouse model assessed as relative liver weight at 63.81 ug/kg, ip treated for 21 days (reference value: 0.77 +/- 0.04 mg/g); type: functional; settings: dose 63.81 µg/kg, time 21 day
Albumin [8] = target: T1, Albumin; assay: Inhibition of D-glucose glycation in human serum albumin model by measuring absorbance at 279 nm incubated for 30 days by UV spectroscopic analysis (reference value: 2.295); settings: 720 h, time 30 day
Albumin [9] = target: T1, Albumin; assay: Inhibition of D-glucose glycation in human serum albumin model by measuring ketoamine moieties incubated for 5 days by Nitroblue tetrazolium (NBT) reduction assay (reference value: 18.58 nmol/mL); settings: 120 h, time 5 day
Mus musculus [10] = assay: Antidiabetic activity in Nicotinamide/Streptozotocin induced male Balb/c mouse model assessed as reduction in total cholesterol level in blood at 63.81 ug/kg, ip treated for 21 days (reference value: 121 +/- 6.05 mg/dL); type: functional; settings: dose 63.81 µg/kg, time 21 day
Albumin [11] = target: T1, Albumin; assay: Inhibition of D-fructose glycation in human serum albumin model by measuring absorbance at 279 nm incubated for 33 days by UV spectroscopic analysis (Rvb =2.222); settings: 792 h, time 33 day
Albumin [12] = target: T1, Albumin; assay: Inhibition of D-fructose glycation in human serum albumin model incubated for 14 days by UV spectroscopic analysis relative to control; settings: 336 h, time 14 day
Albumin [13] = target: T1, Albumin; assay: Inhibition of D-glucose glycation in human serum albumin model by measuring absorbance at 279 nm incubated for 33 days by UV spectroscopic analysis (reference value: 1.997); settings: 792 h, time 33 day
Albumin [14] = target: T1, Albumin; assay: Inhibition of D-fructose glycation in human serum albumin model by measuring ketoamine moieties incubated for 7 days by Nitroblue tetrazolium (NBT) reduction assay (reference value: 125.33 nmol/mL); settings: 168 h, time 7 day
Albumin [15] = target: T1, Albumin; assay: Inhibition of D-fructose glycation in human serum albumin model by measuring ketoamine moieties incubated for 5 days by Nitroblue tetrazolium (NBT) reduction assay (reference value: 111.94 nmol/mL); settings: 120 h, time 5 day
Albumin [16] = target: T1, Albumin; assay: Inhibition of D-glucose glycation in human serum albumin model by measuring absorbance at 279 nm incubated for 5 days by UV spectroscopic analysis (reference value: 0.741); settings: 120 h, time 5 day
Mus musculus [17] = assay: Antidiabetic activity in Nicotinamide/Streptozotocin induced male Balb/c mouse model assessed as change in body weight at 63.81 ug/kg, ip measured immediately (reference value: 25.08 +/- 1.25 g); type: functional; settings: dose 63.81 µg/kg
Albumin [18] = target: T1, Albumin; assay: Inhibition of D-glucose glycation in human serum albumin model by measuring absorbance at 279 nm incubated for 3 days by UV spectroscopic analysis (reference value: 0.562); settings: 72 h, time 3 day
Albumin [19] = target: T1, Albumin; assay: Inhibition of D-fructose glycation in human serum albumin model by measuring absorbance at 279 nm incubated for 14 days by UV spectroscopic analysis (reference value: 2.333); settings: 336 h, time 14 day
Albumin [20] = target: T1, Albumin; assay: Inhibition of D-glucose glycation in human serum albumin by measuring absorbance at 279 nm model incubated for 14 days by UV spectroscopic analysis (reference value: 2.302); settings: 336 h, time 14 day
Albumin [21] = target: T1, Albumin; assay: Inhibition of D-glucose glycation in human serum albumin model by measuring absorbance at 279 nm incubated for 26 days by UV spectroscopic analysis (reference value: 2.301); settings: 624 h, time 26 day
Albumin [22] = target: T1, Albumin; assay: Inhibition of D-fructose glycation in human serum albumin model by measuring ketoamine moieties incubated for 14 days by Nitroblue tetrazolium (NBT) reduction assay (reference value: 129.58 nmol/mL); settings: 336 h, time 14 day
Mus musculus [23] = assay: Antidiabetic activity in Nicotinamide/Streptozotocin induced male Balb/c mouse model assessed as reduction in fasting blood glucose levels at 63.81 ug/kg, ip measured after 21 days by glucometer analysis (reference value: 180.5 +/- 9.02 mg/dl); type: functional; settings: dose 63.81 µg/kg, time 21 day
Mus musculus [24] = assay: Antidiabetic activity in Nicotinamide/Streptozotocin induced male Balb/c mouse model assessed as reduction in Triglycerides level in blood at 63.81 ug/kg, ip treated for 21 days (reference value: 61 +/- 3.05 mg/dL); type: functional; settings: dose 63.81 µg/kg, time 21 day
Mus musculus [25] = assay: Antidiabetic activity in Nicotinamide/Streptozotocin induced male Balb/c mouse model assessed as change in body weight at 63.81 ug/kg, ip treated for 21 days (reference value: 16.62 +/- 0.83 g); type: functional; settings: dose 63.81 µg/kg, time 21 day
Mus musculus [26] = assay: Antidiabetic activity in Nicotinamide/Streptozotocin induced male Balb/c mouse model assessed as reduction in fasting blood glucose levels at 63.81 ug/kg, ip measured after 7 days by glucometer analysis (reference value: 160.5 +/- 8.02 mg/dl); type: functional; settings: dose 63.81 µg/kg, time 7 day

## N=C(N)NCCC[C@H](N)C(=O)N[C@@H](Cc1c[nH]c2ccccc12)C(=O)N[C@@H](Cc1c[nH]c2ccccc12)C(=O)O (H-Arg-Trp-Trp-OH)
Mus musculus [1]
  Activity: 41 mg/dL
Albumin [2]
  Activity: 9.573 nmol/mL
Mus musculus [3]
  Activity: 97 U/L
Albumin [4]
  inhibition (INH): 52.78%
Albumin [5]
  Activity: 19.383 nmol/mL
Albumin [6]
  OD: 1.591
Mus musculus [7]
  Activity: 1.22 mg/g
Albumin [8]
  OD: 2.555
Albumin [9]
  Activity: 12.342 nmol/mL
Mus musculus [10]
  Activity: 108 mg/dL
Albumin [11]
  OD: 1.298
Albumin [12]
  inhibition (INH): 16.45%
Albumin [13]
  OD: 1.236
Albumin [14]
  Activity: 113.45 nmol/mL
Albumin [15]
  Activity: 90.74 nmol/mL
Albumin [16]
  OD: 0.335
Mus musculus [17]
  Activity: 29.56 g
Albumin [18]
  OD: 0.287
Albumin [19]
  OD: 1.207
Albumin [20]
  OD: 0.443
Albumin [21]
  OD: 2.301
Albumin [22]
  Activity: 91.22 nmol/mL
Mus musculus [23]
  Activity: 115 mg/dL
Mus musculus [24]
  Activity: 53 mg/dL
Mus musculus [25]
  Activity: 30.38 g
Mus musculus [26]
  Activity: 150 mg/dL
